For two compounds, GTPCH protein activity, Akt phosphorylation and GTPCH expression results are on record in patent US20100297015A1, “CANCER BIOMARKER AND USES THEREOF” (priority 2007, published 2010).

The subject of one data set is GTPCH. The note with it: competes with GTP, a substrate for GTPCH (Gross and Levi 1992); cited from earlier work.
The test system of another data set is human GTPCH. Nature of the data set: GCH1 siRNA transfection of GCHtet-off and MCF7 cells, expression of GTPCH and phosphor-Akt. The data set is classed as cell-based. Conditions: 10 nM siRNA, Lipofactamine RNAiMAX, 48 hours. As to the method:
GCHtet-off cells (described above) and MCF7 cells (4×10^5/well) were cultured in a 24-well plate and transfected with 10 nM of GCH1 siRNA (comprising the sequences of Seq ID Nos: 1 and 2) and scramble siRNA (SCR), respectively using Lipofactamine RNAiMAX. After 48 hours, the cells were harvested and the expression of human GTPCH, phosphor-Akt and GAPDH was determined. The results are illustrated in FIG. 8. A correlation between human GTPCH expression and phosphor-Akt was observed.

Take `Nc1cc(O)nc(N)n1` [DAHP, 2,4-diamino-6-hydroxypyrimidine]: the GTPCH protein activity entry in the data set with GTPCH is on record as “inhibits GTPCH protein activity”.
As to “GCH1 siRNA: siRNA comprising the sequences of Seq ID Nos: 1 and 2, designed to reduce GTPCH expression (chain 1 CCUAAACGAUGCUAUAUUUTT; chain 2 AAAUAUAGCAUCGUUUAGGTT; chemistry not given here)”, in the data set with human GTPCH, the Akt phosphorylation entry is “Reduction” and the GTPCH expression result was “Downregulated”.
